From the NIST ThermoML archive (doi:10.1016/j.jct.2015.07.028)
± gives the expanded uncertainty stated by the source.

Assay: molar heat capacity at saturation pressure
Details: Small (less than 1 g) adiabatic calorimetry

C=CC(C)(C)O [2-methyl-3-buten-2-ol]
molar heat capacity [J/K/mol]
Details | Crystal 1 | Crystal 2
5 K | – | 0.3244 ± 0.021
5.363 K | – | 0.4026 ± 0.021
5.571 K | – | 0.4523 ± 0.022
5.832 K | – | 0.524 ± 0.023
6.097 K | – | 0.6053 ± 0.025
6.395 K | – | 0.7063 ± 0.027
6.727 K | – | 0.8287 ± 0.03
7.065 K | – | 0.9656 ± 0.033
7.409 K | – | 1.117 ± 0.036
7.759 K | – | 1.284 ± 0.039
8.114 K | – | 1.466 ± 0.043
8.474 K | – | 1.662 ± 0.048
8.837 K | – | 1.874 ± 0.052
9.202 K | – | 2.099 ± 0.057
9.571 K | – | 2.338 ± 0.062
9.942 K | – | 2.587 ± 0.068
10 K | – | 2.631 ± 0.051
10.42 K | – | 2.931 ± 0.056
11.01 K | – | 3.375 ± 0.062
11.6 K | – | 3.843 ± 0.068
12.19 K | – | 4.339 ± 0.075
12.79 K | – | 4.858 ± 0.082
13.39 K | – | 5.395 ± 0.089
14 K | – | 5.954 ± 0.096
14.61 K | – | 6.523 ± 0.1
15 K | – | 6.921 ± 0.11
15.22 K | – | 7.118 ± 0.11
15.95 K | – | 7.872 ± 0.12
16.79 K | – | 8.742 ± 0.13
17.63 K | – | 9.598 ± 0.14
18.48 K | – | 10.46 ± 0.15
19.32 K | – | 11.32 ± 0.16
20 K | – | 12.04 ± 0.13
20.18 K | – | 12.2 ± 0.13
21.37 K | – | 13.46 ± 0.14
22.9 K | – | 15.06 ± 0.14
24.44 K | – | 16.66 ± 0.15
25 K | – | 17.22 ± 0.15
25.98 K | – | 18.24 ± 0.16
27.53 K | – | 19.75 ± 0.16
28.81 K | – | 20.98 ± 0.16
30 K | – | 22.12 ± 0.17
30.24 K | – | 22.33 ± 0.17
31.96 K | – | 23.92 ± 0.18
33.85 K | – | 25.59 ± 0.19
35 K | – | 26.55 ± 0.2
35.75 K | – | 27.18 ± 0.2
37.65 K | – | 28.7 ± 0.21
39.55 K | – | 30.18 ± 0.21
40 K | – | 30.53 ± 0.22
41.55 K | – | 31.7 ± 0.22
43.65 K | – | 33.27 ± 0.23
45 K | – | 34.27 ± 0.24
45.75 K | – | 34.79 ± 0.24
47.85 K | – | 36.31 ± 0.25
49.95 K | – | 37.78 ± 0.25
50 K | – | 37.8 ± 0.25
52.05 K | – | 39.21 ± 0.26
54.16 K | – | 40.59 ± 0.27
56.27 K | – | 41.96 ± 0.28
58.39 K | – | 43.29 ± 0.28
60 K | – | 44.33 ± 0.29
60.51 K | – | 44.64 ± 0.29
62.64 K | – | 45.97 ± 0.3
64.76 K | – | 47.34 ± 0.3
66.88 K | – | 48.71 ± 0.31
69.01 K | – | 50.1 ± 0.32
70 K | – | 50.7 ± 0.32
71.24 K | – | 51.62 ± 0.33
73.58 K | – | 53.27 ± 0.34
75.92 K | – | 55.14 ± 0.35
77.87 K | – | 57.21 ± 0.36
78.23 K | – | 57.58 ± 0.36
78.27 K | – | 57.34 ± 0.36
78.34 K | – | 57.57 ± 0.36
79.01 K | – | 58.22 ± 0.36
79.1 K | – | 58.39 ± 0.36
79.23 K | – | 58.44 ± 0.36
79.68 K | – | 58.95 ± 0.37
79.83 K | – | 59.11 ± 0.37
80 K | – | 57.08 ± 0.36
80.23 K | – | 59.74 ± 0.37
80.33 K | – | 59.84 ± 0.37
80.34 K | – | 59.8 ± 0.37
80.38 K | – | 59.82 ± 0.37
80.93 K | – | 60.61 ± 0.37
81.01 K | – | 60.76 ± 0.38
81.36 K | – | 61.46 ± 0.38
81.48 K | – | 61.53 ± 0.38
81.67 K | – | 61.8 ± 0.38
82.03 K | – | 62.46 ± 0.38
82.27 K | – | 62.81 ± 0.39
82.34 K | – | 62.96 ± 0.39
82.49 K | – | 63.36 ± 0.39
82.57 K | – | 63.46 ± 0.39
83 K | – | 64.02 ± 0.39
83.12 K | – | 64.33 ± 0.39
83.61 K | – | 65.12 ± 0.4
83.66 K | – | 65.08 ± 0.4
84.19 K | – | 66.18 ± 0.4
84.2 K | – | 65.98 ± 0.4
84.31 K | – | 66.19 ± 0.4
84.72 K | – | 67.2 ± 0.41
84.74 K | – | 67.26 ± 0.41
84.97 K | – | 67.69 ± 0.41
85.28 K | – | 68.9 ± 0.42
85.62 K | – | 69.64 ± 0.42
85.81 K | – | 71.17 ± 0.44
85.82 K | – | 71.29 ± 0.44
86.07 K | – | 73.72 ± 0.45
86.26 K | – | 73.39 ± 0.44
86.33 K | – | 74.69 ± 0.45
88.1 K | 61.32 ± 0.32 | 62.25 ± 0.38
89.48 K | 65.12 ± 0.4 | –
89.49 K | 64.37 ± 0.39 | –
89.61 K | 64.85 ± 0.4 | –
90 K | 62.35 ± 0.35 | –
90.04 K | 63.82 ± 0.41 | –
90.18 K | 63.5 ± 0.41 | –
90.62 K | 63.44 ± 0.41 | –
90.78 K | 63.53 ± 0.41 | –
90.87 K | 63.45 ± 0.41 | –
91.19 K | 63.49 ± 0.41 | –
91.32 K | 63.69 ± 0.41 | –
91.57 K | 63.46 ± 0.41 | –
91.77 K | 63.59 ± 0.41 | –
91.97 K | 63.75 ± 0.41 | –
92.27 K | 63.73 ± 0.41 | –
92.34 K | 63.78 ± 0.41 | –
92.92 K | 64.01 ± 0.41 | –
92.97 K | 64.05 ± 0.41 | –
93.15 K | 64.24 ± 0.41 | –
93.36 K | 64.34 ± 0.41 | –
93.5 K | 64.26 ± 0.41 | –
93.67 K | 64.43 ± 0.41 | –
94.08 K | 64.54 ± 0.41 | –
94.35 K | 64.76 ± 0.42 | –
94.37 K | 64.82 ± 0.42 | –
94.67 K | 64.85 ± 0.42 | –
95.08 K | 65.12 ± 0.42 | –
95.25 K | 65.18 ± 0.42 | –
95.42 K | 65.33 ± 0.42 | –
95.55 K | 65.34 ± 0.42 | –
96.34 K | 65.8 ± 0.42 | –
96.44 K | 65.84 ± 0.42 | –
96.75 K | 65.99 ± 0.42 | –
97.48 K | 66.4 ± 0.42 | –
97.95 K | 66.62 ± 0.42 | –
98.15 K | 66.74 ± 0.42 | –
98.26 K | 66.77 ± 0.42 | –
99.15 K | 67.27 ± 0.43 | –
99.55 K | 67.5 ± 0.43 | –
99.97 K | 67.73 ± 0.43 | –
100 K | 67.72 ± 0.43 | –
101.8 K | 68.7 ± 0.43 | –
101.81 K | 68.72 ± 0.43 | –
103.63 K | 69.68 ± 0.44 | –
104.26 K | 70.06 ± 0.44 | –
105.46 K | 70.68 ± 0.44 | –
106.72 K | 71.41 ± 0.45 | –
107.3 K | 71.7 ± 0.45 | –
109.14 K | 72.73 ± 0.45 | –
109.18 K | 72.79 ± 0.45 | –
110 K | 73.25 ± 0.45 | –
110.98 K | 73.78 ± 0.46 | –
111.65 K | 74.18 ± 0.46 | –
112.82 K | 74.82 ± 0.46 | –
114.12 K | 75.6 ± 0.47 | –
114.67 K | 75.87 ± 0.47 | –
116.51 K | 76.95 ± 0.47 | –
116.6 K | 77.03 ± 0.47 | –
118.36 K | 78.04 ± 0.48 | –
119.07 K | 78.49 ± 0.48 | –
120 K | 78.98 ± 0.49 | –
120.2 K | 79.15 ± 0.48 | –
121.55 K | 79.98 ± 0.49 | –
122.05 K | 80.25 ± 0.49 | –
123.9 K | 81.37 ± 0.49 | –
124.02 K | 81.49 ± 0.49 | –
125.74 K | 82.53 ± 0.5 | –
126.49 K | 83.07 ± 0.5 | –
127.59 K | 83.73 ± 0.51 | –
128.96 K | 84.71 ± 0.51 | –
129.43 K | 85.04 ± 0.51 | –
130 K | 85.52 ± 0.51 | –
131.26 K | 86.38 ± 0.52 | –
131.43 K | 86.54 ± 0.52 | –
133.1 K | 87.73 ± 0.52 | –
133.88 K | 88.39 ± 0.53 | –
134.93 K | 89.13 ± 0.53 | –
136.33 K | 90.2 ± 0.54 | –
136.76 K | 90.46 ± 0.54 | –
138.58 K | 91.75 ± 0.54 | –
138.78 K | 91.98 ± 0.54 | –
140 K | 92.84 ± 0.55 | –
140.4 K | 93.1 ± 0.55 | –
141.22 K | 93.76 ± 0.55 | –
142.22 K | 94.49 ± 0.56 | –
143.66 K | 95.62 ± 0.56 | –
144.04 K | 95.9 ± 0.56 | –
145.85 K | 97.31 ± 0.57 | –
146.09 K | 97.56 ± 0.57 | –
147.65 K | 98.82 ± 0.58 | –
148.5 K | 99.58 ± 0.58 | –
149.45 K | 100.3 ± 0.6 | –
150 K | 100.8 ± 0.6 | –
150.92 K | 101.6 ± 0.6 | –
151.37 K | 102 ± 0.6 | –
153.32 K | 103.8 ± 0.6 | –
153.4 K | 103.9 ± 0.6 | –
155.42 K | 105.7 ± 0.6 | –
155.71 K | 106 ± 0.6 | –
157.44 K | 107.7 ± 0.6 | –
158.09 K | 108.4 ± 0.6 | –
159.45 K | 109.7 ± 0.6 | –
160 K | 110.3 ± 0.6 | –
160.45 K | 110.8 ± 0.6 | –
161.45 K | 111.8 ± 0.6 | –
162.8 K | 113.2 ± 0.6 | –
163.44 K | 113.9 ± 0.7 | –
165.14 K | 115.7 ± 0.7 | –
165.42 K | 116 ± 0.7 | –
167.39 K | 118.2 ± 0.7 | –
167.47 K | 118.3 ± 0.7 | –
